Test results as given in patent publication US12110288B2, “MASP-2 inhibitors and methods of use” (Omeros Corporation, priority 2019, dated 2024).
Counter-ions that a name gives are not always drawn.

Target: T1, MASP-2 (CCP1-CCP2-SP) (Homo sapiens, UniProt O00187)
T1 construct: 15 μL of Enzyme MASP-2 (CCP1-CCP2-SP) in Assay Buffer
Test: Enzymatic Assay for MASP-2
Assay type: biochemical
Details: fluorogenic substrate based on C2 cleavage site, room temperature, 20 mM HEPES pH 7.4
Procedure: Enzymatic Assay for MASP-2
The MASP-2 assay utilizes a fluorogenic substrate, based on the cleavage site for its natural substrate C2. The assay is run at room temperature in an assay buffer containing 20 mM HEPES, pH 7.4, 140 mM NaCl and 0.1% Tween 20. Assay parameters are adjusted such that the assay is linear with respect to time, enzyme, and substrate concentrations. Under these optimized assays conditions, IC50 values are equivalent to Ki values, except in a few cases of “tight binding” inhibitors. Cases of “tight binding” or possible “slow binding” inhibitors are handled by the methods described in Copeland R. A. (2013) Evaluation of Enzyme Inhibitors in Drug Discovery. 2nd Ed., John Wiley and Sons, Inc., Chapters 5-7.
The MASP-2 assay protocol is carried out as follows. Test compounds are serially diluted in DMSO and then 100 nL of each dilution is transferred to the assay plate(s). 10 μL of Assay Buffer is added, followed by 15 μL of Enzyme MASP-2 (CCP1-CCP2-SP) in Assay Buffer. 15 μL of Substrate in Assay Buffer is then added and mixed to start the reactions. After 20 min at room temperature, 15 μL of a stop solution (0.1 M acetic acid) is added, mixed and the plates are read on a SpectraMax i3x Microplate Reader and exported as Excel files. Each assay plate included a “no inhibitor” (DMSO Only) control, a “no enzyme” control and a reference inhibitor control. % Activity values=100*(average test comp. fluorescence−average “no enzyme” fluorescence)/(average “DMSO only” fluorescence−average “no enzyme” fluorescence). IC50 and Ki values are very reproducible, falling well within ±2-fold.

T1 sequence (O00187 445-686 limits assumed): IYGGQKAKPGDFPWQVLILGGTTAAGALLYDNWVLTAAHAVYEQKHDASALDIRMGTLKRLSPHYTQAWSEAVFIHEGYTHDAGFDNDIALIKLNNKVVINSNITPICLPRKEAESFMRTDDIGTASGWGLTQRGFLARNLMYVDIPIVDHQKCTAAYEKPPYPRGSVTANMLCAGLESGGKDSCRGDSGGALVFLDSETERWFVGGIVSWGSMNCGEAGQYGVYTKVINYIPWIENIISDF
T1 sequence (O00187 298-444 partner limits assumed): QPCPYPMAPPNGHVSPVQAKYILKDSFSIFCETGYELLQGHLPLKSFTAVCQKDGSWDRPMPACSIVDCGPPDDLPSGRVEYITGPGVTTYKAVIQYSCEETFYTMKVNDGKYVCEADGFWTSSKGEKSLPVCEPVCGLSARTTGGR

Structure (SMILES)	Ki [nM]
Cn1cc(-c2cnc(NCCc3ccccc3)c(=O)n2CC(=O)NCc2ccc3c(c2)CCNC3)cn1 [Compound 80, 2-(6-(1-Methyl-1H-Pyrazol-4-yl)-2-Oxo-3-(Phenethylamino)Pyrazin-1(2H)-yl)-N-((1,2,3,4-Tetrahydroisoquinolin-6-yl)Methyl)Acetamide]	2500 to 10000
Cn1cc(-c2cnc(NCCc3ccccc3)c(=O)n2CC(=O)NCc2cc3c(s2)CNCC3)cn1 [Compound 79]	< 500
Cc1nc(N)ccc1CNC(=O)Cn1c(-c2ccnc(N)c2)cnc(NCCc2ccccc2)c1=O [Compound 84, N-((6-Amino-2-Methylpyridin-3-yl)Methyl)-2-(6-(2-Aminopyridin-4-yl)-2-Oxo-3-(Phenethylamino)Pyrazin-1(2H)-yl)Acetamide]	< 500
CC(C)Nc1cnc(N(CCc2ccccc2)CCc2ccccc2)c(=O)n1CC(=O)NCc1cc2cnccc2[nH]1 [Compound 159]	> 10000
CCOCCCNc1ncc(-c2cnn(C)c2)n(CC(=O)NCc2cc3cnccc3[nH]2)c1=O [Compound 129, trifluoroacetate]	< 500
Cn1cc(-c2cnc(NCC3(c4ccc(Cl)cc4)CC3)c(=O)n2CC(=O)NCc2cc3cnccc3[nH]2)cn1 [Compound 65, N-((1H-Pyrrolo[3,2-c]Pyridin-2-yl)Methyl)-2-(3-(((1-(4-Chlorophenyl)Cyclopropyl)Methyl)Amino)-6-(1-Methyl-1H-Pyrazol-4-yl)-2-Oxopyrazin-1(2H)-yl)Acetamide Trifluoroacetate]	< 500
N#Cc1cccc(-c2cnc(NCCc3ccccc3)c(=O)n2CC(=O)NCc2ccc3nc(N)[nH]c3c2)c1 [Compound 14, N-((2-Amino-1H-benzo[d]imidazol-6-yl)methyl)-2-(6-(3-cyanopheny1)-2-oxo-3-(phenethylamino)pyrazin-1(2H)-yl)acetamide]	< 500
CNc1ncc(-c2ccccc2)n(CC(=O)NCc2ccc(N)nc2C)c1=O [Compound 45, N-((6-Amino-2-methylpyridin-3-yl)methyl)-2-(3-(methylamino)-2-oxo-6-phenylpyrazin-1(2H)-yl)acetamide]	< 500
Cc1nc(N)ccc1CNC(=O)Cn1c(-c2ccc[nH]2)cnc(NCCc2ccccc2)c1=O [Compound 22, N-((6-Amino-2-methylpyridin-3-yl)methyl)-2-(2-oxo-3-(phenethylamino)-6-(1H-pyrrol-2-yl)pyrazin-1(2H)-yl)acetamide]	< 500
COCCCCNc1ncc(-c2cnn(C)c2)n(CC(=O)NCc2cc3cnccc3[nH]2)c1=O [Compound 122, N-((1H-Pyrrolo[3,2-c]Pyridin-2-yl)Methyl)-2-(3-((4-Methoxybutyl)Amino)-6-(1-Methyl-1H-Pyrazol-4-yl)-2-Oxopyrazin-1(2H)-yl)Acetamide Trifluoroacetate]	< 500
O=C(Cn1c(-c2cnn3c2CCCC3)cnc(NCCc2ccccc2)c1=O)NCc1cc2cnccc2[nH]1 [Compound 116, N-((1H-Pyrrolo[3,2-c]pyridin-2-yl)methyl)-2-(2-oxo-3-(phenethylamino)-6-(4,5,6,7-tetrahydropyrazolo[1,5-α]pyridin-3-yl)pyrazin-1(2H)-yl)acetamide]	< 500
Cc1ccc(C2(CNc3ncc(-c4ccccc4)n(CC(=O)NCc4cc5cnccc5[nH]4)c3=O)CC2)cc1 [Compound 63, N-((1H-Pyrrolo[3,2-c]pyridin-2-yl)methyl)-2-(2-oxo-6-phenyl-3-(((1-(p-tolyl)cyclopropyl)methyl)amino)pyrazin-1(2H)-yl)acetamide trifluoroacetate]	< 500
O=C(Cn1c(-c2ccccc2)cnc(NC(CO)Cc2ccccc2)c1=O)NCc1cc2cnccc2[nH]1 (stereo not drawn) [Compound 49, N-((1H-Pyrrolo[3,2-c]pyridin-2-yl)methyl)-2-(3-((1-hydroxy-3-phenylpropan-2-yl)amino)-2-oxo-6-phenylpyrazin-1(2H)-yl)acetamide trifluoroacetate]	< 500
O=C(Cn1c(-c2ccccc2)cnc(NCC2(c3ccc(Cl)cc3)CC2)c1=O)NCc1cnc2c(c1)CNC2 [Compound 69, 2-(3-(((1-(4-Chlorophenyl)Cyclopropyl)Methyl)Amino)-2-Oxo-6-Phenylpyrazin-1(2H)-yl)-N-((6,7-Dihydro-5H-Pyrrolo[3,4-5]Pyridin-3-yl)Methyl)Acetamide Trifluoroacetate]	< 500
Cn1cc(NS(=O)(=O)Cc2ccccc2)c(=O)n(CC(=O)NCc2ccc(C(=N)N)cc2)c1=O [Compound 37, N-(4-Carbamimidoylbenzyl)-2-(3-Methyl-2,6-Dioxo-5-((Phenylmethyl)Sulfonamido)-3,6-Dihydropyrimidin-1(2H)-yl)Acetamide, Trifluoroacetate]	500 to 2500
Cn1cc(-c2cnc(NCCc3ccccc3)c(=O)n2CC(=O)NCc2cc3cnccc3o2)cn1 [Compound 132]	500 to 2500

The remaining lines, values ahead:

Ki [nM]	Structure (SMILES)
< 500	Cc1cc2[nH]c(CNC(=O)Cn3c(-c4ccccc4)cnc(NCCc4ccccc4)c3=O)cc2cn1 [Compound 67, N-((6-Methyl-1H-Pyrrolo[3,2-c]Pyridin-2-yl)Methyl)-2-(2-Oxo-3-(Phenethylamino)-6-Phenylpyrazin-1(2H)-yl)Acetamide Trifluoroacetate]
< 500	Cc1cccc(CNc2ncc(-c3ccccc3)n(CC(=O)NCc3cc4cnccc4[nH]3)c2=O)c1 [Compound 155, N-((1H-Pyrrolo[3,2-c]pyridin-2-yl)methyl)-2-(3-((3-methylbenzyl)amino)-2-oxo-6-phenylpyrazin-1(2H)-yl)acetamide]
< 500	O=C(Cn1c(-c2ccccc2)cnc(NCCc2ccc(F)cc2)c1=O)NCc1cc2cnccc2[nH]1 [Compound 146, N-((1H-Pyrrolo[3,2-c]pyridin-2-yl)methyl)-2-(3-((4-fluorophenethyl)amino)-2-oxo-6-phenylpyrazin-1(2H)-yl)acetamide]
< 500	CS(=O)(=O)NCc1cccc(-c2cnc(NCCc3ccccc3)c(=O)n2CC(=O)NCc2cc3cnccc3[nH]2)c1 [Compound 95, N-((1H-Pyrrolo[3,2-c]Pyridin-2-yl)Methyl)-2-(6-(3-(Methylsulfonamidomethyl)Phenyl)-2-Oxo-3-(Phenethylamino)Pyrazin-1(2H)-yl)Acetamide]
< 500	O=C(Cn1c(-c2ccccc2)cnc(NCCCc2ccccc2)c1=O)NCc1cc2cnccc2[nH]1 [Compound 48, N-((1H-Pyrrolo[3,2-c]pyridin-2-yl)methyl)-2-(2-oxo-6-phenyl-3-((3-phenylpropyl)amino)pyrazin-1(2H)-yl)acetamide trifluoroacetate]
< 500	COc1cccc(CCNc2ncc(-c3ccccc3)n(CC(=O)NCc3cc4cnccc4[nH]3)c2=O)c1 [Compound 136, N-((1H-Pyrrolo[3,2-c]pyridin-2-yl)methyl)-2-(3-((3-methoxyphenethyl)amino)-2-oxo-6-phenylpyrazin-1(2H)-yl)acetamide]
< 500	O=C(O)Cc1cccc(-c2cnc(NCCc3ccccc3)c(=O)n2CC(=O)NCc2cc3cnccc3[nH]2)c1 [Compound 94, 2-(3-(1-(2-(((1H-Pyrrolo[3,2-c]Pyridin-2-yl)Methyl) Amino)-2-Oxoethyl)-6-Oxo-5-(Phenethylamino)-1,6-Dihydropyrazin-2-yl)Phenyl)Acetic Acid Trifluoroacetate]
< 500	O=C(Cn1c(-c2ccccc2)cnc(NCc2cccc(F)c2)c1=O)NCc1cc2cnccc2[nH]1 [Compound 151, N-((1H-Pyrrolo[3,2-c]pyridin-2-yl)methyl)-2-(3-((3-fluorobenzyl)amino)-2-oxo-6-phenylpyrazin-1(2H)-yl)acetamide]
